Patent US20220409601A1, “COMBINATION CANNABINOID-NAD+ PRECURSOR FORMULATION FOR TREATMENT OF INFLAMMATION AND METHODS RELATED THERETO” (priority 2019, published 2022)
Where two headings read alike, the source gives them in different places.

Legend:
GM-CSF = conditions: IL1β 10 ng/ml, 24 hours, no serum
From the text: (§1) A clonal derivative of ATCC-certified normal chondrocytes was used for a study to determine cytokine expression. The parent line was originally derived from costal cartilage of adolescent […]. The cell line used is C-28/I2 accession number CVCL 0187. The cells were immortalized via retroviral vector-mediated SV40 Large T antigen expression. Cells were confirmed negative for mycoplasma contamination and genotyped by STR analysis to verify cell identity. This cell line is widely used as a model for studying normal and pathological cartilage repair mechanisms and inflammation.
(§2) The cells were cultured at 37° C. with 5% CO2, DMEM/F12 media supplemented with 10% heat-inactivated fetal bovine serum. Antimicrobials were not added to the media. Cells were maintained between 40 and 80% confluency to avoid terminal differentiation. Cells used for the experiments had been passaged no more than ten times prior to each experiment.

chondrocytes (C-28/I2) = assay: toxicity screen, maximum tolerable concentration in chondrocytes
From the text: as §1, §2
A series of pilot studies were performed to design the final full-scale experiment. First, a toxicity screen for each test compound was performed to establishment maximum tolerable concentrations in this model system. Second, assays were run to establish the optimal means of inducing a pro-inflammatory state in the cell culture system. Third, conditions were tested to set the most favorable dilution scheme in order to maintain samples within the linear range of detection for each analyte. To establish the test concentrations for each test compound, chondrocytes were treated with a serial dilution of each compound, for 24 and 48 hours under serum free conditions. Oleocanthal or CBD were tested at two-fold dilutions down from 50 micromolar (μM).

[1] = High level (CBD 6.00 μM, niacin 900 μM), FIG. 1, 2C
[2] = Moderate level (CBD 2.00 μM, niacin 300 μM), FIG. 1, 2B
[3] = 24 hours post-treatment, serum free, chondrocytes, microscopy (vacuolation, blebbing, reduced cell count), unit not given

| SMILES | effect on GM-CSF expression (GM-CSF; [1]) | effect on GM-CSF expression (GM-CSF; [2]) | maximum tolerable concentration (chondrocytes (C-28/I2); [3]) | maximum tolerable concentration (chondrocytes (C-28/I2); human, 24 h) [mM] |
| --- | --- | --- | --- | --- |
| C=C(C)[C@@H]1CCC(C)=C[C@H]1c1c(O)cc(CCCCC)cc1O [CBD, cannabidiol] | This effect was not seen | This effect was not seen | 604 |  |
| O=C(O)c1cccnc1 [niacin, nicotinic acid] | This effect was not seen | This effect was not seen |  | 1 |
| C/C=C(/C=O)[C@@H](CC=O)CC(=O)OCCc1ccc(O)cc1 [oleocanthal] |  |  | 604 |  |
